Like-named read-outs stand apart in the source and are kept apart here.
Key:
[1] = test system: CCRF-CEM/VBL100; experiment: cells; type: cell-based, human; conditions: read-out: IC50
Description: (§1) The drug-resistant cell lines were continuously cultured in the presence of the selecting agent, AD, DX, VBL or VM to maintain the drug resistant phenotypes. […] All cells were cultured in RPMI 1640-10% FBS at 37° C. 5% CO2 (see below).
(§2) The cells were cultured at an initial density of 5×10^4 cells/mL. They were maintained in a 5% CO2-humidified atmosphere at 37° C. in RPMI-1640 medium (GIBCO-BRL, Gaithersburg, Md.) containing penicillin (100 U/mL), streptomycin ([…]) (GIBCO-BRL) and 10% heat inactivate fetal bovine serum. Culture for cell suspension (such as for CCRF-CEM, P388 and sublines), were performed by the XTT-microculture tetrazonium method (Scudiero, D. A. et al., Cancer Res. 1988, 48, 4827-4833) in duplicate in 96-well microtiter plates.
(§3) 2′,3′-Bis(methoxy-4-nitro-5-sufophenyl)-5-[(phenylamino)carbonyl]2H-tetrazolium hyudroxide (XTT) was prepared at 1 mg/mL in prewarmed (37° C.) medium without serum. Phenazine methosulfate (PMS) and fresh XTT were mixed together to obtain 0.025 mM PMS-XTT solution (25 μL of the stock 5 mM PMS was added per 5 mL of 1 mg/mL XTT). Following a 72 h incubation, 50 μL of the assay aliquots were added to each well of the cell culture. After incubation at 37° C. for 4 h, absorbance at 450 nm and 630 nm was measured with a microplate reader (EL340, Bio-Tek Instruments, Inc., Winooski, Vt.).

[2] = test system: CCRF-CEM human T-cell acute lymphoblastic leukemia cell line; experiment: XTT cytotoxicity (cell growth inhibition), CCRF-CEM; conditions: for Rel. Value (potency relative to Epo B): CCRF-CEM leukemic cells
Description: The DC-3F hamster lung fibroblast cell line and its actinomycin D-selected sublines (DC-3F/ADII and DC-3F/ADX) were obtained from the Memorial Sloan-Kettering Cancer Center (MSKCC).
as §1, §2, §3

[3] = test system: human mammary carcinoma MX-1 xenograft
Description: DMSO was used as a vehicle for epothilones. Each mouse received ≦40 μL DMSO in all experiments.
Athymic nude mice (nu/nu) were used for MX-1 and MCF-7/Adr human mammary carcinoma xenografts. Mice were obtained from Taconic Laboratory Animals and Service (Germantown, N.Y.: outbred, Swiss background).

[4] = Table 5, CCRF-CEM/VLB, single determinations
[5] = high doses: dEpoB 25, EpoB 0.6, Taxol 10, Vinblastine 0.4 mg/kg i.p. Q2D from day 7
[6] = low doses: dEpoB 15, EpoB 0.3, Taxol 5, Vinblastine 0.2 mg/kg i.p. Q2D day 7-15

Structure (SMILES)	IC50 [1, 4] [nM]	IC50 ([1]; Table 7, CEM/VBL) [nM]	IC50 [1] [nM]	IC50 [2] [nM]	IC50 ([2]; Table 5, single determinations) [nM]	IC50 ([2]; Table 7, CEM) [nM]	Rel. Value (potency relative to Epo B) [2]	also measured
CCC[C@@]12CCC[C@H](C)[C@H](O)[C@@H](C)C(=O)C(C)(C)[C@@H](O)CC(=O)O[C@H](/C(C)=C/c3csc(C)n3)C[C@@H]1O2 [#24]	53	53	53	7.8	7.8	7.8		
CCC/C1=C\C[C@@H](/C(C)=C/c2csc(C)n2)OC(=O)C[C@H](O)C(C)(C)C(=O)[C@H](C)[C@@H](O)[C@@H](C)CCC1 [#17]	254	254	254	90	90	90	1/257	
CCC1=CCC(C(C)=Cc2csc(C)n2)OC(=O)CC(O)C(C)(C)C(=O)C(C)C(O)C(C)CCC1 (stereo not shown) [#26]	197	197	197	5	55	54.5	1/157	
C/C1=C/C[C@@H](/C(C)=C/c2ccccc2)OC(=O)C[C@H](O)C(C)(C)C(=O)[C@H](C)[C@@H](O)[C@@H](C)CCC1 [#22]	146	146	146		98	98		
CC/C1=C/C[C@@H](/C(C)=C/c2csc(C)n2)OC(=O)C[C@H](O)C(C)(C)C(=O)[C@H](C)[C@@H](O)[C@@H](C)CCC1 [#25]	77	77	77	21		21.2	1/60	
CC[C@@]12CCC[C@H](C)[C@H](O)[C@@H](C)C(=O)C(C)(C)[C@@H](O)CC(=O)O[C@H](/C(C)=C/c3csc(C)n3)C[C@@H]1O2 [#27]	7.2	7.2	7.2	1	1	1		fold more potent than Taxol ([2]; CCRF-CEM cells): > 2 fold
C/C1=C/C[C@@H](/C(C)=C/c2csc(C)n2)OC(=O)C[C@H](O)C(C)(C)C(=O)[C@H](C)[C@@H](O)[C@@H](C)CCC1 [Desoxyepothione B]								cured on day 35 (no detectable tumor) ([3]; Desoxyepothilone B 25 mg/kg i.p. Q2D day 7-15): (1/6 cured on day 35); Average Body Weight (change), Day 11 [3, 5]: +0.4 g; Average Body Weight (change), Day 13 [3, 5]: +0.7 g; Average Body Weight (change), Day 15 [3, 5]: +1.0 g; Average Body Weight Change, Day 17 [3, 5]: +0.7 g; Average Tumor Volume (T/C), Day 11 [3, 5]: 0.38 T/C; Average Tumor Volume (T/C), Day 13 [3, 5]: 0.11 T/C; Average Tumor Volume (T/C), Day 15 [3, 5]: 0.05 T/C; Average Tumor Volume (T/C), Day 17 [3, 5]: 0.04 T/C; Note: died (mice died/total) [3, 5]: 0/6 died; Average Body Weight, Day 7 ([3]; initial weight, first treatment day, high doses: dEpoB 25, EpoB 0.6, Taxol 10, Vinblastine 0.4 mg/kg i.p. Q2D from day 7): 27.0 g; Average Body Weight (change), Day 11 [3, 6]: +0.8 g; Average Body Weight (change), Day 13 [3, 6]: +1.1 g; Average Body Weight (change), Day 15 [3, 6]: +1.6 g; Average Body Weight Change, Day 17 [3, 6]: +1.5 g; Average Tumor Volume (T/C), Day 11 [3, 6]: 0.65 T/C; Average Tumor Volume (T/C), Day 13 [3, 6]: 0.46 T/C; Average Tumor Volume (T/C), Day 15 [3, 6]: 0.49 T/C; Average Tumor Volume (T/C), Day 17 [3, 6]: 0.41 T/C; Note: died (mice died/total) [3, 6]: 0/6 died
C/C(=C\c1coc(C)n1)[C@@H]1C/C=C\CCC[C@H](C)[C@H](O)[C@@H](C)C(=O)C(C)(C)[C@@H](O)CC(=O)O1 [#20]	49	49	49	30	30	30		

— patent US6603023B2 (priority 1996, dated 2003)
